The values that follow come from paper PMC11323223 (Bioorganic chemistry, 2022).

The target of experiment [1] is T1, FABP7 (Homo sapiens, UniProt O15540). As to conditions: read-out: FABP7 Ki; cited from earlier work.
Experiment [2] concerns the target T2, FABP3 (Homo sapiens, UniProt P05413). The settings on record: read-out: FABP3 Ki; cited from earlier work.
For experiment [3], the target named is FABP5 (Homo sapiens, UniProt Q01469). The experiment in a line: Fluorescence displacement binding assay. The settings on record: for FABP5/3 SI (selectivity index): FABP5 over FABP3, from Ki values; for FABP5/7 SI (selectivity index): FABP5 over FABP7, from Ki values; for Ki: read-out: FABP5 Ki, average ± S.E. of at least three independent experiments.
FABP5, sequence (Q01469 whole entry): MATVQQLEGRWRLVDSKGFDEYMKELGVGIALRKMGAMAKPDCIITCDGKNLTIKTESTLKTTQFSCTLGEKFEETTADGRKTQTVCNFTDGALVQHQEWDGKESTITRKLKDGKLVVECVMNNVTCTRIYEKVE
Experiment [4] concerns the target T2, FABP3. The experiment in a line: Fluorescence displacement binding assay. As to conditions: for Ki: read-out: FABP3 Ki, average ± S.E. of at least three independent experiments; for FABP3/7 SI (selectivity index): FABP3 over FABP7, from Ki values.
The target of experiment [5] is T1, FABP7. Briefly: Fluorescence displacement binding assay. The settings on record: for Ki: read-out: FABP7 Ki, average ± S.E. of at least three independent experiments; for FABP7/3 SI (selectivity index): FABP7 over FABP3, from Ki values; for FABP7/5 SI (selectivity index): FABP7 over FABP5, from Ki values.
Experiment [6] relates to CFA-induced thermal hyperalgesia. The experiment in a line: CFA-induced thermal hyperalgesia. The experiment is classed as in vivo. As to conditions: 20 mg/kg, i.p., mice, 90 min after administration, n = 6.

Several values for one entry are separate records, joined by “and”; a condition that tells them apart may be missing. Equal values may be shown once. Read-outs that look alike come from different tables or passages of the source.

What is called Ki is a measure of affinity in units of concentration, obtained from inhibition or displacement.

T1 sequence (O15540 whole entry): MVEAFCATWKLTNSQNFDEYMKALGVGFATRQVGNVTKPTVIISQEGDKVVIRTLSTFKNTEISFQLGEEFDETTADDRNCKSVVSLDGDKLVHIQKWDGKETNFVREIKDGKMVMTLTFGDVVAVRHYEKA
T2 sequence (P05413 whole entry): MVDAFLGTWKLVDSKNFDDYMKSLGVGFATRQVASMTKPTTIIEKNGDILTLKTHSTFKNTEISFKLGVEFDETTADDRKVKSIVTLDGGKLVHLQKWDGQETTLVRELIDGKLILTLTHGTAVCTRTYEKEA

In the case of `COc1ccccc1C1[C@H](C(=O)O)[C@H](c2ccccc2OC)[C@H]1C(=O)Oc1cccc2ccccc12` (some centres unmarked) [L2], the inhibition constant (Ki) in experiment [1] was 0.67 ± 0.04 µM; in experiment [2], 0.69 ± 0.17 µM.
Take `COc1ccccc1C1[C@H](C(=O)O)[C@H](c2ccccc2OC)[C@H]1C(=O)OCC1c2ccccc2-c2ccccc21` (some centres unmarked) [L3]: the inhibitory constant (Ki) in experiment [1] is 14.3 ± 0.41 µM; in experiment [2] it was 25.3 ± 4.57 µM.
Regarding `COc1ccccc1C1C(C(=O)O)C(c2ccccc2OC)C1C(=O)Oc1cccc(-c2ccc(F)cc2)c1` (centres unmarked) [γ-13, γ-3-(4′-Fluoro-1,1′-biphenyl-3-yloxycarbonyl)-2,4-bis(2-methoxyphenyl)-cyclobutane-1-carboxylic acid], in experiment [3], the “FABP5/3 SI (selectivity index)” value was determined as 3.4. The “FABP5/7 SI (selectivity index)” value in experiment [3] is given as 2.0. In addition, the Ki in experiment [3] turned out to be 1.77 ± 0.02 µM; in experiment [4], 6.1 ± 1.34 µM; in experiment [5], 3.59 ± 0.24 µM.
With `O=C(O)C1C(c2ccccc2)C(C(=O)OCc2cccc3ccccc23)C1c1ccccc1` (stereo not drawn) [α-24], the Ki turned out to be 2.64 ± 0.01 µM in experiment [3], 51.2 ± 5.71 µM in experiment [4] and 10.2 ± 1.42 µM in experiment [5].
Take `O=C(O)C1C(c2ccccc2)C(C(=O)Oc2ccccc2-c2ccc3c(c2)OCO3)C1c1ccccc1` (stereo not drawn) [α-11, α-3-(2-Benzo[d][1,3]dioxol-5-ylphenoxycarbonyl)-2,4-diphenylcyclobutane-1-carboxylic acid]: the Ki in experiment [3] was found to be 0.79 ± 0.18 µM. In experiment [4], the “FABP3/7 SI (selectivity index)” value was determined as 0.28 and the Ki turned out to be 1.13 ± 0.15 µM. Moreover, in experiment [5], the “FABP7/3 SI (selectivity index)” value is recorded as 3.5, the “FABP7/5 SI (selectivity index)” value came out at 2.5 and the Ki amounted to 0.32 ± 0.13 µM.
For `COc1ccccc1C1C(C(=O)O)C(c2ccccc2OC)C1C(=O)Oc1cccc(-c2ccc(C#N)cc2)c1` (stereo not drawn) [α-20, α-3-(4′-Cyano-1,1′-biphenyl-3-yloxycarbonyl)-2,4-bis(2-methoxyphenyl)cyclobutane-1-carboxylic acid], the inhibitory constant (Ki) in experiment [3] worked out at 1.74 ± 0.08 µM; in experiment [4], 4.64 ± 0.04 µM; in experiment [5], 3.16 ± 0.43 µM.
Consider `O=C(O)C1C(c2ccccc2)C(C(=O)Oc2cccc3ccccc23)C1c1ccccc1` (stereo not drawn) [L1, α-truxillic acid 1‑naphthyl ester], for which the inhibition constant (Ki) is 0.45 ± 0.07 µM in experiment [1] and 2.7 ± 0.42 µM in experiment [2].
With `O=C(O)C1C(c2ccccc2)C(C(=O)Oc2cccc(-c3ccc4ccc(=O)[nH]c4c3)c2)C1c1ccccc1` (centres unmarked) [γ-108, γ-3-(3-(2-Oxo-1,2-dihydroquinolin-7-yl)phenoxycarbonyl)-2,4-diphenylcyclobutane-1-carboxylic acid], the figures for the Ki in experiment [3], in experiment [4] and in experiment [5] were 10.9 ± 2.81 µM, 4.02 ± 0.36 µM and 13.8 ± 1.3 µM, respectively.
On the same counts, the results for `O=C1CCc2cc(-c3cccc(OC(=O)C4C(c5ccccc5)C(C(=O)O)C4c4ccccc4)c3)ccc2N1` (centres unmarked) [γ-10, γ-3-(3-(2-Oxo-1,2,3,4-tetrahydroquinolin-6-yl)phenoxycarbonyl)-2,4-diphenyl-cyclobutane-1-carboxylic acid] are 7.59 ± 1.11 µM, 4.07 ± 0.24 µM and 3.49 ± 0.49 µM.
`COc1ccccc1C1C(C(=O)O)C(c2ccccc2OC)C1C(=O)Oc1ccccc1-c1ccccc1` (stereo not drawn) [α-19, α-3-(1,1′-Biphenyl-2-yloxycarbonyl)-2,4-bis(2-methoxyphenyl) cyclobutane-1-carboxylic acid]: the Ki in experiment [3] turned out to be 1.59 ± 0.24 µM; in experiment [4], 0.21 ± 0.09 µM; in experiment [5], 1.36 ± 0.23 µM. The “FABP3/5 SI (selectivity index)” value in experiment [4] (FABP3 over FABP5, from Ki values) was determined as 7.6. Further, the “FABP3/7 SI (selectivity index)” value in experiment [4] was 6.5.
Turning to `COc1ccccc1C1C(C(=O)O)C(c2ccccc2OC)C1C(=O)Oc1cccc(-c2ccc(C#N)cc2)c1` (centres unmarked) [γ-20, γ-3-(4′-Cyano-1,1′-biphenyl-3-yloxycarbonyl)-2,4-bis(2-methoxyphenyl)-cyclobutane-1-carboxylic acid], the inhibition constant Ki in experiment [3] was found to be 2.46 ± 0.19 µM; in experiment [4], 27.9 ± 6.37 µM; in experiment [5] it was 9.11 ± 1.47 µM.
On the same counts, the results for `COc1ccccc1C1C(C(=O)O)C(c2ccccc2OC)C1C(=O)Oc1cccc(-c2ccc(F)cc2)c1` (stereo not drawn) [α-13] are 1.03 ± 0.11 µM, 2.28 ± 0.36 µM and 0.99 ± 0.53 µM.
Turning to `COc1ccccc1C1C(C(=O)O)C(c2ccccc2OC)C1C(=O)OC1Cc2ccccc2C1` (stereo not drawn) [α-16, α-3-(2,3-Dihydro-1H-inden-2-yloxycarbonyl)-2,4-bis(2-methoxyphenyl)cyclobutane-1-carboxylic acid], the “effect on thermal hyperalgesia” value in experiment [6] is “full reversal of hyperalgesia”. The Ki in experiment [4] came out at 53.8 ± 7.28 µM; in experiment [5], 21.8 ± 4.22 µM.
As for `O=C(O)C1C(c2ccccc2)C(C(=O)OCc2ccccc2-c2ccccc2)C1c1ccccc1` (centres unmarked) [ε-201, ε-3-(1,1′-Biphenyl-2-ylmethoxycarbonyl)-2,4-diphenylcyclobutane-1-carboxylic acid], the Ki in experiment [3] came out at 1.65 ± 0.22 µM. In experiment [4], the Ki came out at 3.4 ± 0.54 µM. In addition, in experiment [5], the “FABP7/3 SI (selectivity index)” value was found to be 5.0, the “FABP7/5 SI (selectivity index)” value was 2.4 and the inhibition constant Ki turned out to be 0.68 ± 0.16 µM.
Regarding `N#Cc1ccc(-c2ccccc2OC(=O)C2C(c3ccccc3)C(C(=O)O)C2c2ccccc2)cc1` (centres unmarked) [γ-102, γ-3-(4′-Cyano-1,1′-biphenyl-2-yloxycarbonyl)-2,4-diphenylcyclobutane-1-carboxylic acid], in experiment [3], the “FABP5/3 SI (selectivity index)” value was found to be 4.2 and the Ki was found to be 1.39 ± 0.07 µM. The inhibitory constant (Ki) in experiment [4] was 5.78 ± 1.3 µM. In experiment [5], the “FABP7/3 SI (selectivity index)” value was 6.1, the “FABP7/5 SI (selectivity index)” value stood at 1.5 and the Ki turned out to be 0.95 ± 0.05 µM.
Take `O=C1Cc2cc(-c3cccc(OC(=O)C4C(c5ccccc5)C(C(=O)O)C4c4ccccc4)c3)ccc2N1` (centres unmarked) [γ-104, γ-3-(3-(2-Oxoindolin-5-yl)phenoxycarbonyl)-2,4-diphenylcyclobutane-1-carboxylic acid]: the inhibitory constant (Ki) in experiment [3] is 2.21 ± 0.43 µM; in experiment [4] it was 2.74 ± 0.44 µM; in experiment [5] it was 4.12 ± 0.32 µM.
Regarding `O=C1CCc2cc(-c3cccc(OC(=O)C4C(c5ccccc5)C(C(=O)O)C4c4ccccc4)c3)ccc2N1` (stereo not drawn) [α-8, α-3-(3-(2-Oxo-1,2,3,4-tetrahydroquinolin-6-yl)phenox-ycarbonyl)-2,4-diphenyl-cyclobutane-1-carboxylic acid], in experiment [3], the “FABP5/3 SI (selectivity index)” value is listed as 13.0, the “FABP5/7 SI (selectivity index)” value came out at 0.56 and the inhibition constant (Ki) was determined as 0.59 ± 0.08 µM. In experiment [4], the inhibition constant (Ki) stood at 7.67 ± 0.71 µM. Also, in experiment [5], the “FABP7/3 SI (selectivity index)” value is 11.6 and 23.2; the “FABP7/5 SI (selectivity index)” value is 1.1 and 1.8.
As for `COc1ccccc1C1C(C(=O)O)C(c2ccccc2OC)C1C(=O)Oc1ccccc1-c1ccc(C#N)cc1` (centres unmarked) [γ-105, γ-3-(4′-Cyano-1,1′-biphenyl-2-yloxycarbonyl)-2,4-bis(2-methoxyphenyl)cyclobutane-1-carboxylic acid], the inhibition constant (Ki) in experiment [3] stood at 2.81 ± 0.57 µM; in experiment [4], 3.39 ± 0.63 µM; in experiment [5], 1 ± 0.17 µM.
As for `COc1ccccc1C1C(C(=O)O)C(c2ccccc2OC)C1C(=O)Oc1ccc(OC)c2ccccc12` (centres unmarked) [γ-109, γ-3-(4-Methoxynaphthalen-1-yloxycarbonyl)-2,4-bis(2-methoxyphenyl)cyclobutane-1-carboxylic acid], the Ki in experiment [3] was 26.6 ± 1.88 µM. Moreover, in experiment [4], the inhibitory constant (Ki) turned out to be 3.5 ± 0.63 µM. Further, in experiment [5], the “FABP7/3 SI (selectivity index)” value is given as 7.4, the “FABP7/5 SI (selectivity index)” value is given as 56.6 and the inhibitory constant (Ki) came out at 0.47 ± 0.08 µM.
With `COc1ccccc1C1C(C(=O)O)C(c2ccccc2OC)C1C(=O)Oc1cccc(-c2ccc3c(c2)OCCO3)c1` (centres unmarked) [γ-17, γ-3-(3-(2,3-Dihydrobenzo[b][1,4]dioxin-6-yl)phenoxycarbonyl)-2,4-bis(2-methoxyphenyl)cyclobutane-1-carboxylic acid], the inhibition constant Ki in experiment [3] amounted to 3.69 ± 0.65 µM; in experiment [4], 8.18 ± 2.67 µM; in experiment [5] it was 5.12 ± 0.32 µM.
